Patent US6472348B1, “Pyridone derivatives and herbicides” (Kumiai Chemical Industry Co., Ltd., priority 1996, dated 2002)

How the values were obtained:
[1] = system: common lambsquarters (Ch); experiment: Test Example 5: crop plant selectivity by upland field soil treatment (wheat), herbicidal effects; assay type: in vivo; set-up: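 grade of growth control; 5 = at least 90%; 4 = 70 to 90%; 3 = 50 to 70%; 2 = 30 to 50%; 1 = 10 to 30%; 0 = under 10%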; details: 21st day after application
Procedure, shortened: (§1)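 Seeds sown in pots of sand and covered with soil. Soil treatment applied. Plants cultured in a greenhouse. Effects rated by standard scale after 21 days.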

China jute (Ab) [2] = experiment: as above; assay type: in vivo; set-up: scale not given here; details: 21st day after application
Procedure, shortened: as §1

pale smartweed (Po) [3] = experiment: Test Example 11: crop plant selectivity by upland field foliage treatment (corn), herbicidal effects; assay type: in vivo; set-up: scale not given here; details: dose 1.6 g ai/10a
Procedure, shortened: (§2)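 Corn and the weed species were sown together in sand-filled pots and grown in a greenhouse for 2 weeks before foliar treatment. Herbicidal effect was scored on day 14 after treatment against a graded standard scale, with corn phytotoxicity scored alongside.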

[4] = system: common lambsquarters (Ch); experiment: as above; assay type: in vivo; set-up: scale not given here; details: dose 1.6 g ai/10a
Procedure, shortened: as §2

slender amaranth (Am) [5] = experiment: as above; assay type: in vivo; set-up: scale not given here; details: dose 1.6 g ai/10a
Procedure, shortened: as §2

corn (Ze) = experiment: Test Example 11: crop plant selectivity by upland field foliage treatment (corn), phytotoxicity; details: dose 1.6 g ai/10a
Procedure, shortened: as §2

pale smartweed (Po) [6] = experiment: Test Example 9: crop plant selectivity by upland field foliage treatment (wheat), herbicidal effects; assay type: in vivo; set-up: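 grade of growth control; 5 = at least 90%; 4 = 70 to 90%; 3 = 50 to 70%; 2 = 30 to 50%; 1 = 10 to 30%; 0 = under 10%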; details: dose 1.6 g ai/10a, 14th day after treatment
Procedure, shortened: (§3)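 Wheat and broadleaf weeds were sown together in sand-filled pots and grown for 2 weeks in a greenhouse before foliar treatment. Herbicidal effect on weeds and phytotoxicity to wheat were scored visually against set grading standards on day 14 after treatment, with plants kept in the greenhouse.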

[7] = system: common lambsquarters (Ch); experiment: as above; assay type: in vivo; set-up: scale not given here; details: dose 1.6 g ai/10a, 14th day after treatment
Procedure, shortened: as §3

slender amaranth (Am) [8] = experiment: as above; assay type: in vivo; set-up: scale not given here; details: dose 1.6 g ai/10a, 14th day after treatment
Procedure, shortened: as §3

China jute (Ab) [9] = experiment: as above; assay type: in vivo; set-up: scale not given here; details: dose 1.6 g ai/10a, 14th day after treatment
Procedure, shortened: as §3

[10] = upland field foliage treatment (corn test), 14th day after treatment
[11] = upland field foliage treatment, 14th day after treatment

Structure (SMILES) | Herbicidal effects Ch ([1]; dose 1.6 g ai/10a) | Herbicidal effects Ab (China jute (Ab) [2]; dose 1.6 g ai/10a) | Herbicidal effects Po (pale smartweed (Po) [3]; pale smartweed, foliage treatment, evaluated on 14th day after treatment, index per Table 47) | Herbicidal effects Ch ([4]; common lambsquarters, foliage treatment, evaluated on 14th day after treatment, index per Table 47) | Herbicidal effects Am (slender amaranth (Am) [5]; slender amaranth, foliage treatment, evaluated on 14th day after treatment, index per Table 47) | Phytotoxicity Ze (corn (Ze); corn, foliage treatment, evaluated on 14th day after treatment, index per Table 47) | Herbicidal effects Ch ([1]; dose 6.3 g ai/10a) | Herbicidal effects Ab (China jute (Ab) [2]; dose 6.3 g ai/10a) | Herbicidal effects Po (pale smartweed (Po) [6]) | Herbicidal effects Ch [7] | Herbicidal effects Am (slender amaranth (Am) [8]) | Herbicidal effects Ab (China jute (Ab) [9]) | Herbicidal effects Po (pale smartweed (Po) [3]; [10]) | Herbicidal effects Ch [4, 10] | Herbicidal effects Am (slender amaranth (Am) [5]; [10]) | Phytotoxicity Ze (corn (Ze); [11])
C#CC(C)Oc1cc(-c2cn(C)c(C(F)(F)F)cc2=O)c(F)cc1Cl (racemic) [Compound 6-10] | 5 | 4 | 4 | 5 | 5 | 1 |  |  |  |  |  |  |  |  |  | 
COc1cc(-c2ccc(C(F)(F)F)n(C)c2=O)c(F)cc1Cl [1-15] | 5 | 5 |  |  |  |  |  |  |  |  |  |  |  |  |  | 
C=CCOc1cc(-c2ccc(C(F)(F)F)n(C)c2=O)c(F)cc1Cl [1-16] | 5 | 5 |  |  |  |  | 5 | 5 | 5 | 5 | 5 | 5 | 5 | 5 | 5 | 2
C#CCOc1cc(-c2ccc(C(F)(F)F)n(C)c2=O)c(F)cc1Cl [1-18] | 5 | 5 |  |  |  |  |  |  |  |  |  |  | 5 | 5 | 5 | 2
Cn1c(C(F)(F)F)ccc(-c2cc(OCC#N)c(Cl)cc2F)c1=O [1-25] |  |  |  |  |  |  |  |  | 5 | 5 | 5 | 5 | 5 | 5 | 5 | 2
C#CCOc1cc(-c2ccc(C(F)(F)F)n(C)c2=O)c(Cl)cc1Cl [1-30] | 5 | 5 |  |  |  |  |  |  | 5 | 5 | 5 | 5 | 5 | 5 | 5 | 2
CC(C)Sc1cc(-c2ccc(C(F)(F)F)n(C)c2=O)c(F)cc1Cl [1-43] |  |  |  |  |  |  | 5 | 4 | 5 | 5 | 5 | 5 |  |  |  | 
C#CCSc1cc(-c2ccc(C(F)(F)F)n(C)c2=O)c(F)cc1Cl [1-44] |  |  |  |  |  |  | 5 | 5 | 5 | 5 | 5 | 5 |  |  |  | 
Cc1cc(-c2ccc(C(F)(F)F)n(C)c2=O)c(F)cc1Cl [1-90] |  |  |  |  |  |  | 5 | 5 |  |  |  |  |  |  |  | 
COCSc1cc(-c2ccc(C(F)(F)F)n(C)c2=O)c(F)cc1Cl [1-91] | 5 | 5 |  |  |  |  |  |  | 5 | 5 | 5 | 5 |  |  |  | 
Cn1c(C(F)(F)F)ccc(-c2cc(Cl)c(Cl)cc2F)c1=O [1-136] | 5 | 4 |  |  |  |  | 5 | 5 |  |  |  |  |  |  |  | 
Cn1c(C(F)(F)F)ccc(-c2cc(OCC(F)(F)F)c(Cl)cc2F)c1=O [1-155] | 5 | 5 |  |  |  |  | 5 | 5 |  |  |  |  |  |  |  | 
